According to patent publication US20090028830A1, “Preparation of multipotent stem cells and the use thereof” (priority 2005, published 2009):

Target: T1, PKCβ2 (Homo sapiens, UniProt P05771)
T1 construct: mononucleated cells constitutively expressed PKC isoforms α, β1, β2, γ, l/λ and ζ; endogenous in cells; host or cells: mononucleated cells (monocytes)
Experiment: PKC isoform activation/translocation in mononucleated cells during P-stem cell differentiation
Format: cell-based
Settings: mononucleated cells pre-treated with Go6976 (1 μM) 30 minutes at 37° C., then Bryostatin-1 (10 nM) at designated time intervals; combined treatment; FIG. 4
Method: The constitutively expressed PKC isoforms in mononucleated cells are detected by Western Blot analysis with each PKC isoform-specific antibodies. […] In the FIG. 1, Mo and pc represents mononucleated cell and PKC positive cell lysate, respectively. To examine the specific activation of PKC isoform(s) iii the differentiation of P-stem cells, mononucleated cells are pre-treated with Go6976 (1 μM) for 30 minutes at 37° C. and then incubated with Brvostatin-1 (10 nM) at designated time intervals. […] Therefore, any substances stimulating the activation of PKCβ2 are capable of inducing the differentiation of P-stem cells.

T1 sequence (P05771 1-673 isoform P05771-2): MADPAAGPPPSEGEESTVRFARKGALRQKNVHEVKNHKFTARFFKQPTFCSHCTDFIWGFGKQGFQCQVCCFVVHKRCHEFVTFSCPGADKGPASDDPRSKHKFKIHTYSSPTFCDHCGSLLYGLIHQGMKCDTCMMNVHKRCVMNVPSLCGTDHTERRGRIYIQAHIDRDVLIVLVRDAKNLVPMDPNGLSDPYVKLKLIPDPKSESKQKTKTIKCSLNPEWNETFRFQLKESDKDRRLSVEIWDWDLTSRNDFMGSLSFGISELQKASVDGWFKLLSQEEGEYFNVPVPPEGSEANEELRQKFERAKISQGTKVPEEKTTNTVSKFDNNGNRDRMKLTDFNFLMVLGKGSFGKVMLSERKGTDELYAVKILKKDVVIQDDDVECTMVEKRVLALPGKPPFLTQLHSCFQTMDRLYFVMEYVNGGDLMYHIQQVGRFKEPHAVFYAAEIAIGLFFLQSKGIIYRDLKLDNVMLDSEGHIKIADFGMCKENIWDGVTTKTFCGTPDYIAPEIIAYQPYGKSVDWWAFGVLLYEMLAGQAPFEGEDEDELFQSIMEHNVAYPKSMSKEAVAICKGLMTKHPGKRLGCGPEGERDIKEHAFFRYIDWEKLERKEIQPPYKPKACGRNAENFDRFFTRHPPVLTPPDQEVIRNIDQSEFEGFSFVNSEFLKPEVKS

| Compound | specific activation of PKC isoform(s) (translocation from cytosol to plasma membrane) |
| --- | --- |
| Cn1c2ccccc2c2c3c(c4c5ccccc5n(CCC#N)c4c21)CNC3=O [Go6976] | only PKCβ2 is activated and translocates from cytosol to plasma membrane |
| CCC/C=C/C=C/C(=O)O[C@H]1/C(=C/C(=O)OC)C[C@H]2C[C@H]([C@@H](C)O)OC(=O)C[C@H](O)C[C@@H]3C[C@H](OC(C)=O)C(C)(C)[C@](O)(C[C@@H]4C/C(=C/C(=O)OC)C[C@H](/C=C/C(C)(C)[C@]1(O)O2)O4)O3 [Brvostatin-1, Bryostatin-1] | only PKCβ2 is activated and translocates from cytosol to plasma membrane |
